In PubChem BioAssay AID1963853 (Molecular Pharmacology Branch, DTP, NCI, 2024):

Test system: 266295-075-R-J1-PDC spheroid viability
Assay: Anticancer human tumor 266295-075-R-J1-PDC patient-derived head and neck squamous carcinoma cell line growth inhibition [POLQ]
Conditions: spheroids with HUVEC and MSC; for IC50: curve of first compound; for viability, T/C: stronger effect = lower value; active = viability on the fitted dose curve at most 10% of control; inactive = the rest
In short: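 Three-cell-type spheroids modelling solid tumor plus stroma served as the readout system; POL inhibitors were tested individually and in combination, concentration ranges set by clinical Cmax where known.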

[1] = second compound 0.0316 µM, first compound 0.00316 µM
[2] = second compound 0.0316 µM, first compound 0.01 µM
[3] = second compound 0.0316 µM, first compound 0.0316 µM
[4] = second compound 0.0316 µM, first compound 0.1 µM
[5] = second compound 0.0316 µM, first compound 0.316 µM
[6] = second compound 0.0316 µM, first compound 1 µM
[7] = second compound 0.1 µM, first compound 0.00316 µM
[8] = second compound 0.1 µM, first compound 0.01 µM
[9] = second compound 0.1 µM, first compound 0.0316 µM
[10] = second compound 0.1 µM, first compound 0.1 µM
[11] = second compound 0.1 µM, first compound 0.316 µM
[12] = second compound 0.1 µM, first compound 1 µM
[13] = second compound 0.316 µM, first compound 0.00316 µM
[14] = second compound 0.316 µM, first compound 0.01 µM
[15] = second compound 0.316 µM, first compound 0.0316 µM
[16] = second compound 0.316 µM, first compound 0.1 µM
[17] = second compound 0.316 µM, first compound 0.316 µM
[18] = second compound 0.316 µM, first compound 1 µM
[19] = second compound 1 µM, first compound 0.00316 µM
[20] = second compound 1 µM, first compound 0.01 µM
[21] = second compound 1 µM, first compound 0.0316 µM
[22] = second compound 1 µM, first compound 0.1 µM
[23] = second compound 1 µM, first compound 0.316 µM
[24] = second compound 1 µM, first compound 1 µM
[25] = second compound 3.16 µM, first compound 0.00316 µM
[26] = second compound 3.16 µM, first compound 0.01 µM
[27] = second compound 3.16 µM, first compound 0.0316 µM
[28] = second compound 3.16 µM, first compound 0.1 µM
[29] = second compound 3.16 µM, first compound 0.316 µM
[30] = second compound 3.16 µM, first compound 1 µM
[31] = second compound 10 µM, first compound 0.00316 µM
[32] = second compound 10 µM, first compound 0.01 µM
[33] = second compound 10 µM, first compound 0.0316 µM
[34] = second compound 10 µM, first compound 0.1 µM
[35] = second compound 10 µM, first compound 0.316 µM
[36] = second compound 10 µM, first compound 1 µM
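Also: spheroids exposed to compounds for seven days before readout.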

CCc1c2c(nc3ccc(O)cc13)-c1cc3c(c(=O)n1C2)COC(=O)[C@]3(O)CC + COC1C(OC(N)=O)C(O)C(Oc2ccc3c(O)c(NC(=O)c4ccc(O)c(CC=C(C)C)c4)c(=O)oc3c2C)OC1(C)C
> 1000 nM: IC50 (second compound 0.0316 µM) | IC50 (second compound 0.1 µM) | IC50 (second compound 0.316 µM) | IC50 (second compound 1 µM) | IC50 (second compound 3.16 µM) | IC50 (second compound 10 µM)
inactive: viability, T/C [1] 91% | viability, T/C [2] 109% | viability, T/C [3] 89.8% | viability, T/C [4] 105% | viability, T/C [5] 96.7% | viability, T/C [6] 70.2% | viability, T/C [7] 90.1% | viability, T/C [8] 99.2% | viability, T/C [9] 86.6% | viability, T/C [10] 103% | viability, T/C [11] 108% | viability, T/C [12] 79.3% | viability, T/C [13] 99.7% | viability, T/C [14] 82.9% | viability, T/C [15] 85.6% | viability, T/C [16] 109% | viability, T/C [17] 100% | viability, T/C [18] 69.7% | viability, T/C [19] 93.5% | viability, T/C [20] 79.2% | viability, T/C [21] 91.1% | viability, T/C [22] 94.5% | viability, T/C [23] 99.5% | viability, T/C [24] 69.9% | viability, T/C [25] 84.4% | viability, T/C [26] 90.6% | viability, T/C [27] 97.9% | viability, T/C [28] 104% | viability, T/C [29] 96.8% | viability, T/C [30] 65.5% | viability, T/C [31] 89.5% | viability, T/C [32] 89% | viability, T/C [33] 107% | viability, T/C [34] 112% | viability, T/C [35] 106% | viability, T/C [36] 55.4%

O=c1[nH]cc(F)c(=O)[nH]1 + Nc1ccc(C#CCN(C(=O)Cc2ncc(C(F)(F)F)cc2C(F)(F)F)c2ccc(F)cc2)nn1
> 10000 nM: IC50 (second compound 0.0316 µM) | IC50 (second compound 0.1 µM) | IC50 (second compound 0.316 µM) | IC50 (second compound 1 µM) | IC50 (second compound 3.16 µM) | IC50 (second compound 10 µM)
inactive: viability, T/C [3] 107% | viability, T/C [4] 101% | viability, T/C [5] 104% | viability, T/C [6] 109% | viability, T/C (second compound 0.0316 µM, first compound 3.16 µM) 102% | viability, T/C (second compound 0.0316 µM, first compound 10 µM) 99.5% | viability, T/C [9] 85.5% | viability, T/C [10] 116% | viability, T/C [11] 84.7% | viability, T/C [12] 98% | viability, T/C (second compound 0.1 µM, first compound 3.16 µM) 109% | viability, T/C (second compound 0.1 µM, first compound 10 µM) 80.2% | viability, T/C [15] 102% | viability, T/C [16] 96.5% | viability, T/C [17] 83% | viability, T/C [18] 89.6% | viability, T/C (second compound 0.316 µM, first compound 3.16 µM) 108% | viability, T/C (second compound 0.316 µM, first compound 10 µM) 76% | viability, T/C [21] 105% | viability, T/C [22] 85.7% | viability, T/C [23] 95.6% | viability, T/C [24] 120% | viability, T/C (second compound 1 µM, first compound 3.16 µM) 86% | viability, T/C (second compound 1 µM, first compound 10 µM) 79.8% | viability, T/C [27] 99.9% | viability, T/C [28] 131% | viability, T/C [29] 101% | viability, T/C [30] 89.3% | viability, T/C (second compound 3.16 µM, first compound 3.16 µM) 99.1% | viability, T/C (second compound 3.16 µM, first compound 10 µM) 86.9% | viability, T/C [33] 113% | viability, T/C [34] 103% | viability, T/C [35] 95.8% | viability, T/C [36] 96.3% | viability, T/C (second compound 10 µM, first compound 3.16 µM) 88% | viability, T/C (second compound 10 µM, first compound 10 µM) 87.1%

CC[C@@]1(O)C(=O)OCc2c1cc1n(c2=O)Cc2cc3c(CN(C)C)c(O)ccc3nc2-1 + COC1C(OC(N)=O)C(O)C(Oc2ccc3c(O)c(NC(=O)c4ccc(O)c(CC=C(C)C)c4)c(=O)oc3c2C)OC1(C)C
> 100 nM: IC50 (second compound 0.0316 µM) | IC50 (second compound 0.1 µM) | IC50 (second compound 0.316 µM) | IC50 (second compound 1 µM) | IC50 (second compound 3.16 µM) | IC50 (second compound 10 µM)
inactive: viability, T/C (second compound 0.0316 µM, first compound 0.000316 µM) 84.1% | viability, T/C (second compound 0.0316 µM, first compound 0.001 µM) 99.8% | viability, T/C [1] 84.9% | viability, T/C [2] 96.9% | viability, T/C [3] 89.4% | viability, T/C [4] 104% | viability, T/C (second compound 0.1 µM, first compound 0.000316 µM) 87.2% | viability, T/C (second compound 0.1 µM, first compound 0.001 µM) 87.7% | viability, T/C [7] 90.5% | viability, T/C [8] 100% | viability, T/C [9] 103% | viability, T/C [10] 88% | viability, T/C (second compound 0.316 µM, first compound 0.000316 µM) 102% | viability, T/C (second compound 0.316 µM, first compound 0.001 µM) 85.4% | viability, T/C [13] 75.8% | viability, T/C [14] 98.2% | viability, T/C [15] 89.4% | viability, T/C [16] 89.1% | viability, T/C (second compound 1 µM, first compound 0.000316 µM) 99% | viability, T/C (second compound 1 µM, first compound 0.001 µM) 90.8% | viability, T/C [19] 109% | viability, T/C [20] 89.2% | viability, T/C [21] 114% | viability, T/C [22] 100% | viability, T/C (second compound 3.16 µM, first compound 0.000316 µM) 114% | viability, T/C (second compound 3.16 µM, first compound 0.001 µM) 97% | viability, T/C [25] 85.3% | viability, T/C [26] 91.2% | viability, T/C [27] 88.3% | viability, T/C [28] 96.9% | viability, T/C (second compound 10 µM, first compound 0.000316 µM) 95.8% | viability, T/C (second compound 10 µM, first compound 0.001 µM) 98.5% | viability, T/C [31] 97.8% | viability, T/C [32] 107% | viability, T/C [33] 95.4% | viability, T/C [34] 94.5%
